From US10294202B2, “Pyrrolidinones as herbicides” (FMC Corporation, priority 2013, dated 2019)

Key:
[1] = system: lambsquarters; experiment: Test C pre-/postemergence herbicide test; assay type: in vivo, Chenopodium album; details: Preemergence
From the text: (§1) Seeds of plant species selected from blackgrass (Alopecurus myosuroides), ryegrass, Italian (Italian ryegrass, Lolium multiflorum), wheat (winter wheat, Triticum aestivum), galium (catchweed bedstraw, Galium aparine), corn (Zea mays), crabgrass, large (large crabgrass, Digitaria sanguinalis), foxtail, giant (giant foxtail, Setaria faberii), johnsongrass (Sorghum halepense), lambsquarters (Chenopodium album), morningglory (Ipomoea coccinea), nutsedge, yellow (yellow nutsedge, Cyperus esculentus), pigweed (Amaranthus retroflexus), ragweed (common ragweed, Ambrosia elatior), soybean (Glycine max), barnyardgrass (Echinochloa crus-galli), oilseed rape (Brassica napus), waterhemp (common waterhemp, Amaranthus rudis), kochia (Kochia scoparia), oat, wild (wild oat, Avena fatua), surinam grass (Brachiaria decumbens), foxtail, green (green foxtail, Setaria viridis), goosegrass (Eleusine indica), bromegrass, downy (downy bromegrass, Bromus tectorum), nightshade (eastern black nightshade, Solanum ptycanthum), cocklebur (common cocklebur, Xanthium strumarium), cupgrass, woolly (woolly cupgrass, Eriochloa villosa), bermudagrass (Cynodon dactylon), sunflower, (common oilseed sunflower, Helianthus annuus), Russian thistle (Salsola kali) and velvetleaf (Abutilon theophrasti) were planted into a blend of loam soil and sand and treated preemergence with test chemicals formulated in a non-phytotoxic solvent mixture which included a surfactant. At the same time, plants selected from these crop and weed species and also barley (winter barley, Hordeum vulgare), […]), chickweed (common chickweed, Stellaria media), deadnettle (henbit deadnettle, Lamium amplexicaule), and canarygrass (littleseed canarygrass, Phalaris minor) were planted in pots containing Redi-Earth® planting medium (Scotts Company, 14111 Scottslawn Road, Marysville, Ohio 43041) comprising spaghnum peat moss, vermiculite, wetting agent and starter nutrients and treated with postemergence applications of test chemicals formulated in the same manner. Plants ranged in height from 2 to 18 cm (1- to 4-leaf stage) for postemergence treatments. Treated plants and controls were maintained in a greenhouse for 13 to 15 days, after which time all species were compared to controls and visually evaluated. Plant response ratings, summarized in Table C, are based on a scale of 0 to 100 where 0 is no effect and 100 is complete control. A dash (-) response means no test result.

[2] = system: morningglory; experiment: Test A pre-/postemergence herbicide test; assay type: in vivo, Ipomoea spp.; details: for Morningglory plant response rating: Preemergence, visual rating on 0 to 100 scale (0 no effect, 100 complete control)
Procedure, shortened: (§2)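 Seeds in loam–sand blend received preemergence directed soil spray; separately, plants 2–10 cm at one- to two-leaf stage received postemergence spray, both with test chemicals in non-phytotoxic solvent with surfactant. After ~10 days in greenhouse, injury rated visually against untreated controls, 0 (no effect) to 100 (complete control).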

[3] = system: kochia; experiment: Test A pre-/postemergence herbicide test; assay type: in vivo, Kochia scoparia; details: for Plant response rating, Kochia: 0 to 100 scale
Procedure, shortened: as §2

[4] = system: ragweed; experiment: Test A pre-/postemergence herbicide test; assay type: in vivo, Ambrosia elatior; details: for Plant response rating, Ragweed: 0 to 100 scale
Procedure, shortened: as §2

[5] = system: barnyardgrass; experiment: Test C pre-/postemergence herbicide test; assay type: in vivo, Echinochloa crus-galli; details: Preemergence
From the text: as §1

[6] = system: ryegrass, Italian; experiment: Test A pre-/postemergence herbicide test; assay type: in vivo, Lolium multiflorum; details: for Plant response rating, Ryegrass, Italian: 0 to 100 scale
Procedure, shortened: as §2

[7] = 125 g ai/ha, scale 0 to 100 (0 no effect, 100 complete control)
[8] = Postemergence, 125 g ai/ha, 0 to 100 scale, 0 no effect, 100 complete control
[9] = Postemergence, 500 g ai/ha, 0 to 100 scale (0 no effect, 100 complete control)
[10] = preemergence, 500 g ai/ha, 0 to 100 scale
[11] = 31 g ai/ha, scale 0 to 100, 0 is no effect and 100 is complete control
[12] = 125 g ai/ha, visual rating, 0 no effect, 100 complete control, approximately 10 days, preemergence
[13] = Postemergence, 125 g ai/ha, 0 is no effect, 100 is complete control
[14] = preemergence, 500 g ai/ha, 0 is no effect and 100 is complete control

Structure (SMILES)	Plant response rating, Lambsquarters ([1]; 62 g ai/ha, scale 0 to 100)	Plant response rating, Lambsquarters [1, 7]	Plant response rating, Morningglory [2, 8]	Plant response rating, Morningglory [2, 9]	Morningglory plant response rating ([2]; 125 g ai/ha)	Plant response rating, Morningglory [2, 10]	Lambsquarters plant response rating [1, 11]	other results
O=C1NCC(c2ccc(Cl)c(F)c2)C1C(=O)Nc1ccccc1F (stereo not shown) [Compound 53]	0	40	0	0	0	0	–	–
O=C1NCC(c2ccc(F)c(Cl)c2)C1C(=O)Nc1cccc(F)c1F (stereo not shown) [Compound 59]	0	0	0	0	0	0	–	–
O=C1NCC(c2ccc3c(c2)OC(F)(F)O3)C1C(=O)Nc1cccc(F)c1F (stereo not shown) [Compound 62]	65	70	0	0	0	0	–	–
O=C1NCC(c2cccc(Br)c2)C1C(=O)Nc1cccc(F)c1F (stereo not shown) [Compound 64]	10	30	0	0	0	0	–	–
O=C1NCC(c2cccc(Br)c2)C1C(=O)Nc1ccccc1F (stereo not shown) [Compound 66]	0	0	0	0	0	0	0	–
O=C1NCC(c2cccc(OC(F)(F)F)c2)C1C(=O)Nc1cccc(F)c1F (stereo not shown) [Compound 68]	55	65	0	0	0	0	55	–
O=C1NCC(c2ccc(C(F)(F)F)cc2)C1C(=O)Nc1ccccc1Cl (stereo not shown) [Compound 233]	–	95	–	–	–	–	85	Plant response rating, Kochia [3, 12]: 50; Plant response rating, Kochia [3, 13]: 60; Kochia plant response rating (0 to 100 scale, 0 is no effect, 100 is complete control) ([3]; Postemergence, 500 g ai/ha): 80; Plant response rating, Kochia [3, 14]: 80; Plant response rating, Ragweed [4, 12]: 40; Plant response rating, Ragweed [4, 13]: 30; Ragweed plant response rating (0 to 100 scale, 0 is no effect, 100 is complete control) ([4]; Postemergence, 500 g ai/ha): 50; Plant response rating, Ragweed [4, 14]: 50; Barnyardgrass plant response rating [5, 11]: 80; Plant response rating, Barnyardgrass ([5]; 62 g ai/ha, scale 0 to 100): 75; Plant response rating, Barnyardgrass [5, 7]: 85; Plant response rating (scale of 0 to 100; 0 is no effect, 100 is complete control), Barnyardgrass ([5]; 250 g ai/ha): 90; Lambsquarters plant response rating ([1]; 62 g ai/ha, scale 0 to 100 (0 no effect, 100 complete control)): 85; Plant response rating (scale of 0 to 100), Lambsquarters ([1]; 250 g ai/ha): 90; Plant response rating, Ryegrass, Italian [6, 12]: 30; Plant response rating, Ryegrass, Italian [6, 13]: 20; Ryegrass, Italian plant response rating (0 to 100 scale, 0 is no effect, 100 is complete control) ([6]; Postemergence, 500 g ai/ha): 40; Plant response rating, Ryegrass, Italian [6, 14]: 60
